Measured values published in patent US20250109139A1, “TRICYCLIC COMPOUND, AND PREPARATION METHOD THEREFOR AND USE THEREOF” (SHANGHAITECH UNIVERSITY, priority 2022, published 2025).
Like-named read-outs stand apart in the source and are kept apart here.

Legend:
dopamine D2 receptors [1] = biological target: T1, dopamine D2 receptors (Homo sapiens (Human), UniProt P14416); test: Dopamine D2 receptor Gαi1 BRET (G protein trimer dissociation); assay type: cell-based; conditions: for Emax: relative to endogenous ligand dopamine, read-out: Gαi1 BRET Emax % ± SEM
T1 sequence (P14416 whole entry): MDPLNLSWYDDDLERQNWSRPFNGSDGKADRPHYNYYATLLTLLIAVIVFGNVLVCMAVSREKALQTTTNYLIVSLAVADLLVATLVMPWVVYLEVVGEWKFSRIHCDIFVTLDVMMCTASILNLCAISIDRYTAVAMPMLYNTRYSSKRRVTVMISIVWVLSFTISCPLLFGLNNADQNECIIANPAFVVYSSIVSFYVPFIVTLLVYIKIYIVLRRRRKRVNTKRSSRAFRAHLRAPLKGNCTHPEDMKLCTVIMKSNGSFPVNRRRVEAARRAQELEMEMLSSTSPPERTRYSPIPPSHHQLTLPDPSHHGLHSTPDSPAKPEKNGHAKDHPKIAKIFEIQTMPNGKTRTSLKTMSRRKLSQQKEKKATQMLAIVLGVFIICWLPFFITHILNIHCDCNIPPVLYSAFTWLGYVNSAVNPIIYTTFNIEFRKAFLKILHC
Protocol: (§1) To examine the downstream G-protein signaling pathway mediated by dopamine D2 receptors, on the first day, a 6 cm culture dish was used for transfection with 1 μg of dopamine D2 receptors, 1 μg of Gαi1 containing C-terminal seaweed luciferase (Gαi1-Rluc), 1 μg of Gβ3, 1 μg of Gγ9 containing C-terminal green fluorescent protein (Gγ9-GFP) mixed with 16 μL of PEI. At the same time, in order to examine the downstream β-arrestin2 signaling pathway mediated by dopamine D2 receptors, on the first day, a 6 cm culture dish was used for transfection with […] of dopamine D2 receptors containing C-terminal seaweed luciferase (D2-Rluc), […] of G protein-coupled receptor kinase 2 (GRK2), […] of β-arrestin2 containing N-terminal green fluorescent protein (GFP2-ARRB2) mixed with 14 μL of PEI. The next day, the confluent cells of a 6 cm culture dish were digested and reseeded into a 96-well plate with 100 μL of culture medium added to each well. On the third day, the drugs were added for test. The 96-well plate was taken out from the cell incubator to decant the culture medium, 40 μL of the substrate coelenterazine 400a (final concentration of 5 μM) was added to each well, and then 20 μL of different drugs were added sequentially from left to right to ensure that the final concentration of the drug decreased gradually from bottom to top, with two replicates per treatment. Finally, the prepared samples were loaded on machine for test. The machine readout value reflected the recruitment of β-arrestin2 to the membrane or the dissociation of G protein trimer. The former indicated the degree of activation of the β-arrestin2 signaling pathway downstream of the dopamine D2 receptors, and the latter indicated the degree of activation of the G protein signaling pathway downstream of the dopamine D2 receptors.

dopamine D2 receptors [2] = biological target: T1, dopamine D2 receptors; test: Dopamine D2 receptor β-arrestin2 BRET (recruitment); assay type: cell-based; conditions: for Emax: relative to endogenous ligand dopamine, read-out: β-arrestin2 BRET Emax % ± SEM
Protocol: as §1

dopamine D2 receptors [3] = biological target: T1, dopamine D2 receptors; test: Dopamine D2 receptor radioligand competition binding assay ([3H]-Methylspiperone); conditions: [3H]-Methylspiperone 0.3 to 0.5 nM, 293T membranes
Protocol: The affinity of the compounds of the present disclosure for dopamine D2 receptors was determined by a radioligand competition binding assay.
In the first step, a cell membrane component containing specific dopamine D2 receptors was prepared. A 10 cm culture dish was used for transfection with […] of dopamine D2 receptors and 40 μL of polyethylenimine (PEI hereafter). […] A vacuum pump was used to suck off the culture medium, 3 mL of lysis buffer was added to each culture dish, and the cells were placed in a 4° C. cold room for 10 minutes. After the cells were detached, the cells were transferred to a 15 mL centrifuge tube and centrifuged at 1500 rpm for 5 minutes at 4° C., and the supernatant was discarded. The cell pellet was transferred to a tissue homogenizer, and 3 mL of lysis buffer was added and fully ground until the cells were broken. Then, cell suspension was equally aliquoted into several EP tubes, centrifuged at 12000 rpm for 5 minutes at 4° C., and the supernatant was discarded. The precipitate was the cell membrane component containing the dopamine D2 receptors.
First, a standard binding buffer was added to the cell membrane component containing the dopamine D2 receptors, and the cell membrane was disrupted and resuspended with an electric tissue homogenizer. 30 μL of membrane protein suspension was added to each well of a 96-well plate. Then, 30 μL of different drugs were added to the 96-well plate sequentially from bottom to top to ensure that the final drug concentrations were 10^−5 M, 10^−6 M, 10^−7 M, 10^−8 M, 10^−9 M, and 0 M, with two replicates per treatment. Next, 30 μL of [3H]-Methylspiperone was added to each well of the 96-well plate. The plate was incubated at room temperature in the dark for 2 hours. Detection was conducted. The machine readout value reflected the amount of [3H]-Methylspiperone bound on the membrane, and after further data processing, the affinity Ki values of different compounds for the dopamine D2 receptors were obtained.

[4] = unit printed only in Cariprazine cell, read-out: Gαi1 BRET EC50
[5] = unit printed only in Cariprazine cell, read-out: β-arrestin2 BRET EC50
[6] = read-out: Gαi1 BRET pEC50 ± SEM (converted)
[7] = read-out: Affinity pKi ± SEM (converted)

Compound	Gαi1 BRET pEC50 ± SEM (dopamine D2 receptors [1])	Emax (dopamine D2 receptors [1])	EC50 (dopamine D2 receptors [1]; [4])	β-arrestin2 BRET pEC50 ± SEM (dopamine D2 receptors [2])	Emax (dopamine D2 receptors [2])	EC50 (dopamine D2 receptors [2]; [5])	Affinity pKi ± SEM (dopamine D2 receptors [3])	Ki (dopamine D2 receptors [3]; read-out: Affinity Ki)	EC50 (dopamine D2 receptors [1]; [6])	Ki (dopamine D2 receptors [3]; [7])	EC50 (dopamine D2 receptors [2]; read-out: β-arrestin2 BRET pEC50 ± SEM (converted))
COc1cccc2c3c(oc12)CN(CCCCOc1ccc2ccc(=O)n(C)c2c1)CC3 [I-A4, 7-(4-(8-methoxy-3,4-dihydrobenzofuro[2,3-c]pyridin-2(1H)-yl)butoxy)-1-methylquinolin-2(1H)-one]	(6.16 ± 0.06)	55%	709 nM	(7.17 ± 0.18)	65%	81.2 nM	–	–	–	–	–
COc1cccc2c3c(oc12)CN(CCCOc1ccc2ccc(=O)[nH]c2c1)CC3 [I-A8, 7-(3-(8-methoxy-3,4-dihydrobenzofuro[2,3-c]pyridin-2(1H)-yl)propoxy)quinolin-2(1H)-one]	–	68%	0.15 nM	–	103%	52.6 nM	(6.82 ± 0.16)	149 nM	–	–	–
COc1cccc2c3c(oc12)CN(CCNC(=O)C1CCOCC1)CC3 [I-A14, N-(2-(8-methoxy-3,4-dihydrobenzofuro[2,3-c]pyridin-2(1H)-yl)ethyl)tetrahydro-2H-pyran-4-carboxamide]	–	–	–	–	–	–	–	752 nM	–	–	–
CCOc1cccc2c3c(oc12)CN(CC[C@H]1CC[C@H](NC(=O)N(C)C)CC1)CC3 [I-A17, 3-(trans-4-(2-(8-ethoxy-3,4-dihydrobenzofuro[2,3-c]pyridin-2(1H)-yl)ethyl)cyclohexyl)-1,1-dimethylurea]	–	49%	4.37 nM	–	29%	6.7 nM	–	–	3.67 nM	–	–
CCOc1cccc2c3c([nH]c12)CN(CCCCOc1ccc2ccc(=O)[nH]c2c1)CC3 [I-B2, 7-(4-(8-ethoxy-1,3,4,9-tetrahydro-2H-pyrido[3,4-b]indol-2-yl)butoxy)quinolin-2(1H)-one]	–	–	–	–	–	–	–	78.9 nM	–	77.6 nM	–
CCOc1cccc2c3c([nH]c12)CN(CCCOc1ccc2ccc(=O)[nH]c2c1)CC3 [I-B4, 7-(3-(8-ethoxy-1,3,4,9-tetrahydro-2H-pyrido[3,4-b]indol-2-yl)propoxy)quinolin-2(1H)-one]	–	–	–	–	–	–	(6.13 ± 0.26)	728 nM	–	–	–
COc1cccc2c3c([nH]c12)CN(CCCOc1ccc2c(c1)NC(=O)CC2)CC3 [I-B5, 7-(3-(8-methoxy-1,3,4,9-tetrahydro-2H-pyrido[3,4-b]indol-2-yl)propoxy)-3,4-dihydroquinolin-2(1H)-one]	–	35%	43.6 nM	–	76%	6.53 nM	–	–	–	–	–
CCOc1cccc2c3c([nH]c12)CN(CCCOc1ccc2c(c1)NC(=O)CC2)CC3 [I-B6, 7-(3-(8-ethoxy-1,3,4,9-tetrahydro-2H-pyrido[3,4-b]indol-2-yl)propoxy)-3,4-dihydroquinolin-2(1H)-one]	–	–	–	–	–	–	(6.58 ± 0.41)	266 nM	–	–	–
COc1cccc2c3c([nH]c12)CN(CC1(O)CCCCC1)CC3 [I-B9, 1-((8-methoxy-1,3,4,9-tetrahydro-2H-pyrido[3,4-b]indol-2-yl)methyl)cyclohexan-1-ol]	–	14%	43.3 nM	–	51%	133 nM	–	–	61.7 nM	–	–
COc1cccc2c3c([nH]c12)CN(CCC1CC(NC(=O)N(C)C)C1)CC3 (stereo not drawn) [I-B10, 3-(3-(2-(8-methoxy-1,3,4,9-tetrahydro-2H-pyrido[3,4-b]indol-2-yl)ethyl)cyclobutyl)-1,1-dimethylurea]	–	–	–	–	–	–	(7.63 ± 0.57)	23.2 nM	–	–	–
COc1cccc2c1cc1n2CCN(C/C=C/COc2ccc3c(c2)NC(=O)CC3)C1 [I-C6, (E)-7-((4-(9-methoxy-3,4-dihydropyrazino[1,2-a]indol-2(1H)-yl)but-2-en-1-yl)oxy)-3,4-dihydroquinolin-2(1H)-one]	–	49%	276 nM	–	92%	2.45 nM	–	–	–	–	–
CCOc1cccc2c1cc1n2CCN(CCCCOc2ccc3ccc(=O)[nH]c3c2)C1 [I-C10, 7-(4-(9-ethoxy-3,4-dihydropyrazino[1,2-a]indol-2(1H)-yl)butoxy)quinolin-2(1H)-one]	–	20%	118 nM	–	49%	828 nM	–	–	120 nM	–	–
CCOc1cccc2c1cc1n2CCN(CC[C@H]2CC[C@H](NC(=O)N(C)C)CC2)C1 [I-C11, 3-(trans-4-(2-(9-ethoxy-3,4-dihydropyrazino[1,2-a]indol-2(1H)-yl)ethyl)cyclohexyl)-1,1-dimethylurea]	–	23%	39.8 nM	–	45%	128 nM	–	–	–	–	–
COc1cccc2c1cc1n2CCN(CC2(O)CCCCC2)C1 [I-C12, 1-((9-methoxy-3,4-dihydropyrazino[1,2-a]indol-2(1H)-yl)methyl)cyclohexan-1-ol]	–	66%	23.4 nM	–	52%	54.4 nM	–	–	38.9 nM	–	–
COc1cccc2c1nc1n2CCN(CCCCOc2ccc3ccc(=O)[nH]c3c2)C1 [I-D1, 7-(4-(9-methoxy-3,4-dihydrobenzo[4,5]imidazo[1,2-a]pyrazin-2(1H)-yl)butoxy)quinolin-2(1H)-one]	–	77%	267 nM	–	100%	56 nM	–	–	263 nM	–	–
COc1cccc2c1nc1n2CCN(CCCCOc2ccc3c(c2)NC(=O)CC3)C1 [I-D2, 7-(4-(9-methoxy-3,4-dihydrobenzo[4,5]imidazo[1,2-a]pyrazin-2(1H)-yl)butoxy)-3,4-dihydroquinolin-2(1H)-one]	–	71%	355 nM	–	106%	70.1 nM	–	–	324 nM	–	69.2 nM
COc1cccc2c1nc1n2CCN(CCCOc2ccc3ccc(=O)[nH]c3c2)C1 [I-D3, 7-(3-(9-methoxy-3,4-dihydrobenzo[4,5]imidazo[1,2-a]pyrazin-2(1H)-yl)propoxy)quinolin-2(1H)-one]	–	71%	130 nM	–	97%	18.3 nM	–	–	–	–	–
COc1cccc2c1nc1n2CCN(CCCOc2ccc3c(c2)NC(=O)CC3)C1 [I-D4, 7-(3-(9-methoxy-3,4-dihydrobenzo[4,5]imidazo[1,2-a]pyrazin-2(1H)-yl)propoxy)-3,4-dihydroquinolin-2(1H)-one]	–	81%	159 nM	–	89%	33.6 nM	–	–	–	–	–
COc1cccc2c1nc1n2CCN(C/C=C/COc2ccc3c(c2)NC(=O)CC3)C1 [I-D5, (E)-7-((4-(9-methoxy-3,4-dihydrobenzo[4,5]imidazo[1,2-a]pyrazin-2(1H)-yl)but-2-en-1-yl)oxy)-3,4-dihydroquinolin-2(1H)-one]	–	46%	160 nM	–	66%	38.8 nM	–	–	162 nM	–	–
COc1cccc2c1nc1n2CCN(CC[C@H]2CC[C@H](NC(=O)N(C)C)CC2)C1 [I-D6, 3-(trans-4-(2-(9-methoxy-3,4-dihydrobenzo[4,5]imidazo[1,2-a]pyrazin-2(1H)-yl)ethyl)cyclohexyl)-1,1-dimethylurea]	–	–	–	–	–	–	–	16.8 nM	–	12.9 nM	–
COc1cccc2c1nc1n2CCN(CC2(O)CCCCC2)C1 [I-D7, 1-((9-methoxy-3,4-dihydrobenzo[4,5]imidazo[1,2-a]pyrazin-2(1H)-yl)methyl)cyclohexan-1-ol]	–	67%	79 nM	–	41%	180 nM	–	–	95.5 nM	–	–
